Source: patent US8440645B2, “Ceramide production promoter” (Kao Corporation, priority 2008, dated 2013)
Structures can show the parent of a compound that is named as a salt.

Tests used:
human horny layer = experiment: Test on effect of improving moisture content in human horny layer (Test Example 2); type: in vivo; conditions: 1% Compound 1 solution applied to cheek twice a day, five days a week, 4 weeks; ten men; P<0.1 t-test
Procedure: Ten men (25 to 40-year-old: mean age 30.5)
A solution containing 1% Compound 1 and a placebo solution containing only a solvent were used as application samples. The solvent used was 95.0% ethanol:1,3-BG:purified water=20:10:70.
The samples were applied twice a day and five days a week. The amount of each sample per application was set to two drops (about 100 μl) from an eye drop bottle.
The test was performed by applying the sample containing 1% Compound 1 to one side of the cheek and the placebo solution to the other side for 4 weeks, followed by measuring moisture contents in the horny layer using a Corneometer. The measurement was performed before the application and after the 4-week application at the same regions on the cheek, and the result of the 1% Compound 1-containing sample side was compared with that of the placebo side.

[1] = tested on: Normal human epidermal keratinocytes (NHEK(F)); experiment: Ceramide production promotion test (Test Example 1); type: cell-based; conditions: 3 days culture, control (10% ethanol) defined as 1
Procedure: Normal human epidermal keratinocytes (NHEK(F)) were seeded into an EpiLife-KG2 (KURABO INDUSTRIES LTD.) 6-well Plate and cultured until the cells became confluent. Thereafter, in replacement of EpiLife-KG2 (containing no proliferation addition factor), Compound 1 (5 mM) and Compound 2 (1 mM) prepared in Production Examples or a control solution (10% ethanol) was added thereto in an amount of 1%. Culture was performed for 3 days, and the cells in each well were separately collected.
Lipids were extracted from the collected cells by Bligh and Dyer method. The extracts were dried with nitrogen, and the residues were redissolved in chloroform and methanol, to thereby prepare lipid samples. Note that the amounts of proteins were determined by a BCA method.
The extracted lipids were subjected to horizontal development twice by using thin layer chromatography (TLC) and chloroform:methanol:acetic acid=190:9:1. The resultant was sprayed with a copper sulfate solution and heated on a hot plate, to thereby detect ceramide. Thereafter, the resultant values were divided by respective protein amounts to calculate amounts of ceramide. […] The numerical values shown in the table are relative values when the amount of ceramide in the control is defined as 1.

[2] = tested on: Normal human epidermal keratinocytes (NHEK(F)); experiment: Ceramide production promotion test (Test Example 3); type: cell-based; conditions: 5 mM solution added in an amount of 1%, 3 days culture
Procedure: Normal human epidermal keratinocytes (NHEK(F)) were seeded into an EpiLife-KG2 (KURABO INDUSTRIES LTD.) 6-well Plate and cultured until the cells became confluent. […] Culture was performed for 3 days, and the cells in each well were separately collected. Lipids were extracted from the collected cells by a Bligh and Dyer method. The extracts were dried with nitrogen, and the residues were redissolved in chloroform and methanol, to thereby prepare lipid samples. Note that the amounts of proteins were determined by the BCA method. The extracted lipids were subjected to horizontal development twice by using thin layer chromatography (TLC) and chloroform:methanol:acetic acid=190:9:1. The resultant were sprayed with a copper sulfate solution and heated on a hot plate, to thereby detect ceramide. Thereafter, the resultant values were divided by respective protein amounts to calculate amounts of ceramide.

[3] = control (10% ethanol) defined as 1
[4] = control (50% ethanol) defined as 1

Molecule: 1-n-tetradecyl-3-ethylglycerol-2-phosphate arginine salt [Compound 1]
- Moisture content in the horny layer (Corneometer) compared with placebo-applied side (human horny layer): increase
- Amount of ceramide (relative value) ([1]; 5 mM solution added in an amount of 1%): 3.3

Molecule: CCCCCCCCCCC(CCCCCCCC)COCC(O)COP(=O)(O)O (centres unmarked) [Compound 9, 1-(2-Octyldodecyl)glycerol-3-phosphate monoarginine salt]
- Amount of ceramide (relative value) [2, 3]: 4.1

Molecule: CCCCCC(C)CCCCCCCCCCCOCC(O)COP(=O)([O-])[O-].[K+].[K+] (centres unmarked) [Compound 8, 1-(12-Methylheptadecyl)glycerol-3-phosphate dipotassium salt]
- Amount of ceramide (relative value) [2, 3]: 10.4

Molecule: 1-Isostearylglycerol-3-phosphate monoarginine salt [Compound 7]
- Amount of ceramide (relative value) [2, 3]: 18.9

Molecule: CCCCCCCCCCCCCCOCC(O)COP(=O)(O)O (centres unmarked) [Compound 4, 1-Tetradecylglycerol-3-phosphate monoarginine salt]
- Amount of ceramide (relative value) [2, 3]: 4.3

Molecule: CCCCCCCCCCCCCCCCCCOCC(O)COP(=O)([O-])[O-].[Na+].[Na+] (centres unmarked) [Compound 5, 1-Octadecylglycerol-3-phosphate disodium salt]
- Amount of ceramide (relative value) [2, 4]: 2.6

Molecule: CCCCOCC(COCCCCCCCCCCCCCCCC(C)C)OP(=O)([O-])[O-].[Na+].[Na+] (centres unmarked) [Compound 2, 1-isostearyl-3-butylglycerol-2-phosphate sodium salt]
- Amount of ceramide (relative value) ([1]; 1 mM solution added in an amount of 1%): 1.5

Molecule: monoalkyl (having an average alkyl chain length of C13) phosphate potassium salt [Comparative Compound 1, reference compound]
- Amount of ceramide (relative value) [2, 4]: 0.6

Molecule: CCCCCCCCCCCCOCC(O)COP(=O)([O-])[O-].[Na+].[Na+] (centres unmarked) [Compound 3, 1-Dodecylglycerol-3-phosphate disodium salt]
- Amount of ceramide (relative value) [2, 3]: 3.1

Molecule: CCCCCCCCCC(CCCCCCC)COCC(O)COP(=O)(O)O (centres unmarked) [Compound 6, 1-(2-Heptylundecyl)glycerol-3-phosphate monoarginine salt]
- Amount of ceramide (relative value) [2, 3]: 4.0
